Source: patent US7902254B1, “Method for treating conditions mediated by PPAR using macelignan” (Newtree Co., Ltd., priority 2005, dated 2011)

Assays:
human PPARγ = molecular target: T1, human PPARγ (Homo sapiens, UniProt P37231); experiment: PPARγ activation, luciferase reporter in transfected COS-7 cells; assay type: cell-based; conditions: 24 hours
T1 construct: expressed in transfected cells; host or cells: COS-7 monkey kidney cells (ATCC CRL-1651)
T1 sequence (P37231 176-477 isoform P37231-2): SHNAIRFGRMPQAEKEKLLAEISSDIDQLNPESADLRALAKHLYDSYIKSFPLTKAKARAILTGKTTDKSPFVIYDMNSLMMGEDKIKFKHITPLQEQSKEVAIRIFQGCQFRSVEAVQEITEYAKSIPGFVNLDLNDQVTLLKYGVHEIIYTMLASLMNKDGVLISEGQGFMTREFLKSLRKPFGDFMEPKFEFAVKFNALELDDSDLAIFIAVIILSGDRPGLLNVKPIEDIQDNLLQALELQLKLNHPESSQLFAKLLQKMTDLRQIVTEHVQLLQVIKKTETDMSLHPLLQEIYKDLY
Method: Then, the polynucleotide was cloned between the restriction enzyme sites of BamHI and KpnI of pFA vector (Stratagene, USA). […] RT-PCR was performed by synthesizing cDNA using reverse transcriptase at 42° C. for 60 minutes, and 30 cycles of 1 minute at 95° C., 30 seconds at 54° C. and 2 minutes at 72° C. using Taq polymerase. […] Then, the polynucleotide was cloned between the restriction enzyme sites of XbaI and KpnI of pFA vector (Stratagene, USA).

[1] = system: 3T3-L1 mouse pre-adipocytes; experiment: Stimulation of adipocyte differentiation; assay type: cell-based; conditions: 10 μM, 3T3-L1, vs 0.01% DMSO control and 10 μM troglitazone
Method: 3T3-L1 mouse pre-adipocytes cultured in a DMEM medium containing 10% FBS were pipetted into a multi-well plate in a cell count of 1×10^6 cells per well, and then further cultured for 5 hours. To the cultured cells, 10 μM of macelignan was added and then left for 24 hours. Adipocyte differentiation was induced by substituting the medium of the cultured cells with MDI (0.5 mM 3-isobutyl-1-methylxanthine, 0.5 uM dexamethasone, 10 ug/ml insulin) medium (Am. J. Physiol. Cell Physiol., 280: C807-C813, 2001). The shape of the cells was observed by an optical microscope two day after the substitution of MDI medium.

[2] = system: obesity/diabetes mice (db/db mice); experiment: Effect upon hyperlipidemia and cardiovascular diseases in obesity/diabetes mouse model; assay type: in vivo; conditions: 14 days
Method: To investigate effects of macelignan upon the treatment of hyperlipidemia and cardiovascular diseases, seven mice of 10 week-aged obesity/diabetes mice (db/db mice) were used per test group. To the test groups, macelignan suspended in 0.25% carboxymethyl cellulose was orally administered in an administration dose of 5 mg/kg (body weight), 10 mg/kg (body weight) and 25 mg/kg (body weight), once per day at a predetermined time, for 14 days. As a control, 0.25% carboxymethyl cellulose was orally administered alone to normal mice in the same dose as administered to the test group. As another control, 0.25% carboxymethyl cellulose was orally administered alone to obesity/diabetes mice in the same dose as administered to the test group. As still another control, 10 mg/kg (body weight) of troglitazone was orally administered. Fourteen days after the administration, triglyceride concentration in blood (triglyceride measuring kit, Wako, Japan), free fatty acid concentration in blood (free fatty acid measuring kit, Wako, Japan), total cholesterol content in blood (ASAN T-CHO-Lq Reagents, Asan Pharmaceutical Co. Ltd., Korea), HDL-cholesterol content in blood (ASAN HDL-Cholesterol, Asan Pharmaceutical Co. Ltd., Korea), IL-6 content in blood (IL-6 Quantikine ELISA, R&D systems, USA) and TNF-α content in blood were measured for the test groups and the controls.

[3] = system: obesity/diabetes mice (db/db mice); experiment: Effect upon fatty liver in obesity/diabetes mouse model; assay type: in vivo; conditions: 25 mg/kg oral, 14 days
Method: To investigate effects of macelignan upon the prevention and treatment of fatty liver, seven mice of 10 week-aged obesity/diabetes mice (db/db mice) were used per test group. To the test groups, macelignan suspended in 0.25% carboxymethyl cellulose was orally administered in an administration dose of 5 mg/kg (body weight), 10 mg/kg (body weight) and 25 mg/kg (body weight), once per day at a predetermined time, for 14 days in all. As a control, 0.25% carboxymethyl cellulose was orally administered alone to normal mice in the same dose as administered to the test group. As another control, 0.25% carboxymethyl cellulose was orally administered alone to obesity/diabetes mice in the same dose as administered to the test group. As still another control, 10 mg/kg (body weight) of troglitazone was orally administered. Fourteen days after the oral administration, the liver tissue was isolated and crushed to extract the total lipid and fat contents, and then the triglyceride content accumulated in the liver tissue was measured.

[4] = system: target genes of PPARα (CD36, ACO, CPT-1); experiment: Expression of target genes of PPARα in liver tissue of obesity/diabetes mouse model; assay type: in vivo; conditions: 5, 10 and 25 mg/kg oral, 14 days, db/db mice, p<0.05 vs control
Method: Liver tissue was removed from the test groups and the controls treated by oral administration in Examples 5˜8. The liver tissue was homogenized in liquid nitrogen and the total RNA was isolated from the tissues by using TRIZOL (Invitrogen, USA). The total RNA isolated as described above was determined and cDNA was synthesized by using reverse transcriptase at 42° C. for 20 minutes with same amount of RNA. The cDNA was subjected to RT-PCR by repeating 30 cycles of 95° C./1 minute, 56° C./30 seconds and 72° C./2 minutes with the following primers and Taq polymerase: primers for CD36 amplification (SEQ ID NO: 5 and SEQ ID NO: 6), primers for ACO amplification (SEQ ID NO: 11 and SEQ ID NO: 12), and primers for CPT-1 amplification (SEQ ID NO: 7 and SEQ ID NO: 8). Expression of the genes was determined by real-time PCR.

For `COc1cc(C[C@H](C)[C@H](C)Cc2ccc3c(c2)OCO3)ccc1O` (single isomer, unassigned) [macelignan], the “luciferase activity higher than the control (PPARγ)” value (human PPARγ; 25 μM, control 0.01% DMSO) was “about 10.4 times”, the PPARγ activity (human PPARγ; 1, 5, 10 and 25 μM, p<0.01 vs control) was “increased PPARγ activity in a concentration-dependent manner” and the adipocyte differentiation [1] was “adipocyte differentiation was stimulated”. For the same compound, the “Free fatty acid in blood” value ([2]; 5 mg/kg oral) was 1.26 ± 0.19 mEq/l, the HDL-cholesterol in blood ([2]; 5 mg/kg oral) was 43.5 ± 6.73 mg/dL and the IL-6 in blood ([2]; 5 mg/kg oral) was 21.42 ± 11.42 pg/mL. It also gave a TNF-α in blood ([2]; 5 mg/kg oral) of 36.92 ± 16.27 pg/mL, a Total cholesterol in blood ([2]; 5 mg/kg oral) of 119 ± 13.8 mg/dL and a Triglyceride in blood ([2]; 5 mg/kg oral) of 98.71 ± 36.62 mg/dL. For the same compound, the “Free fatty acid in blood” value ([2]; 10 mg/kg oral) was 1.16 ± 0.31 mEq/l, the HDL-cholesterol in blood ([2]; 10 mg/kg oral) was 42.2 ± 7.29 mg/dL and the IL-6 in blood ([2]; 10 mg/kg oral) was 12.04 ± 5.47 pg/mL. The TNF-α in blood ([2]; 10 mg/kg oral) was 16.41 ± 9.60 pg/mL, the Total cholesterol in blood ([2]; 10 mg/kg oral) was 110 ± 15.2 mg/dL and the Triglyceride in blood ([2]; 10 mg/kg oral) was 91.71 ± 44.04 mg/dL. The “Free fatty acid in blood” value ([2]; 25 mg/kg oral) was 1.14 ± 0.15 mEq/l, the HDL-cholesterol in blood ([2]; 25 mg/kg oral) was 46.6 ± 3.89 mg/dL and the IL-6 in blood ([2]; 25 mg/kg oral) was 4.86 ± 2.46 pg/mL. For the same compound, the TNF-α in blood ([2]; 25 mg/kg oral) was 27.54 ± 9.77 pg/mL, the Total cholesterol in blood ([2]; 25 mg/kg oral) was 110 ± 23.7 mg/dL and the Triglyceride in blood ([2]; 25 mg/kg oral) was 84.00 ± 31.24 mg/dL. The “triglyceride content in the liver tissue” value [3] was 6.30 ± 11.59 mg/g and the “mRNA expression of CD36, ACO and CPT-1 in liver tissue” value [4] was “significantly increased”.
